Measured values as given in patent publication US12679878B2, “CRF2 receptor agonists and their use in therapy” (SANOFI, priority 2020, dated 2026).
Starred links: 1 amine or outer side, 2 acyl side, 3 side chain; linkers in the order of their positions; H or OH if unused. Non-standard residues stand in square brackets, D forms with d. Residues, ends and D or L forms follow the SMILES beside them. Groups on a side chain read outwards from the residue. *: point of attachment. C18 diacid = O=C(O)CCCCCCCCCCCCCCCCC(=O)*; γGlu = O=C(O)[C@H](CCC(=O)[*:2])N[*:1]; Palmitoyl = CCCCCCCCCCCCCCCC(=O)*; AEEA = NCCOCCOCC(=O)O; Aib = CC(C)(N)C(=O)O

Key:
Assay type in all cases: cell-based
rat CRF2R α receptor = assay: cAMP agonism at rat CRF2R α receptor in A7R5 rat aortic smooth muscle cells (Example 8); details: cAMP HTRF, A7R5 rat aortic smooth muscle cell line, 0% HSA
How it was run: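 Potency (EC50) is the concentration reaching half-maximal activation, with responses scaled so that 1000 nM urocortin 2 equals 100%. Intracellular cAMP was quantified by homogeneous time-resolved fluorescence at 665/620 nm, 1 h after lysis-buffer reagents. Compound stimulation lasted 30 min at room temperature on 2000 IBMX-treated (2 mM) cells per well in HEPES-buffered HBSS.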

CRF1R receptor [1] = molecular target: T1, CRF1R receptor (Homo sapiens, UniProt P34998); assay: cAMP activity at anti-target CRF1R, CHO-K1 cell line clone 2 (Example 19.10); details: 100% = Sauvagine at 100 nM; CRF1R CHO-K1 clone 2
T1 construct: host or cells: CHO-K1 clone 2
T1 sequence (P34998 24-415): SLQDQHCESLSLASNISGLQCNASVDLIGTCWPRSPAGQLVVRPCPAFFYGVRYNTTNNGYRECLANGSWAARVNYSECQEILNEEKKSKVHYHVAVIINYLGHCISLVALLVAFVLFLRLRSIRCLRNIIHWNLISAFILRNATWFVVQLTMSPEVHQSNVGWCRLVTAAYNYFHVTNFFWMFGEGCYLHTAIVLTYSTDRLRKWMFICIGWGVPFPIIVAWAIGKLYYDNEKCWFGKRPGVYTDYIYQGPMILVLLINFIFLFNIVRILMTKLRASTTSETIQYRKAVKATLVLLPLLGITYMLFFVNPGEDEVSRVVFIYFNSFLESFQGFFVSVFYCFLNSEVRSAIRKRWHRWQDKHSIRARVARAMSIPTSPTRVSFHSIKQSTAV
How it was run: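 The cAMP read-out used the same protocol as the previous assay, except that Sauvagine at 100 nM set the 100% activation control. Cells were CHO-K1 clone 2 overexpressing CRF1R, cultured in F12 medium with 10% FBS and G418 and stored frozen until use.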

CRF1R receptor [2] = molecular target: T1, CRF1R receptor; assay: cAMP activity at anti-target CRF1R, CRF1R-overexpression CHO cell line (Example 9); details: CRF1R-overexpression CHO cell line; read-out: Emax (%)
How it was run: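 Using thawed CRF1R-overexpressing CHO cells at 2000 per well, compound is applied for 30 min at RT in HBSS/HEPES buffer with IBMX. Cellular cAMP content is determined via HTRF, and percent activity is calculated against 1000 nM UCN2 defined as 100%.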

Row | SMILES | EC50 (rat CRF2R α receptor) | Emax (CRF1R receptor [1]) | Emax (CRF1R receptor [2])
1 | CCCCCCCCCCCCCCCC(=O)N[C@@H](CCC(=O)NCCCC[C@H](NC(=O)[C@H](CC(C)C)NC(=O)CNC(=O)[C@@H](NC(=O)[C@@H]1CCCN1C(=O)[C@H](NC(=O)[C@H](CC(=O)O)NC(=O)[C@H](CC(C)C)NC(=O)[C@H](CO)NC(=O)[C@H](CC(C)C)NC(=O)[C@@H](NC(=O)[C@@H](N)[C@@H](C)CC)C(C)C)C(C)C)[C@@H](C)CC)C(=O)N[C@@H](CCC(N)=O)C(=O)N[C@@H](CCCCN)C(=O)N[C@@H](CC(C)C)C(=O)N[C@@H](CC(C)C)C(=O)N[C@@H](CCCCN)C(=O)N[C@@H](CCC(N)=O)C(=O)N[C@@H](CCC(N)=O)C(=O)N[C@@H](CCCNC(=N)N)C(=O)N[C@@H](CCC(N)=O)C(=O)N[C@@H](CCCNC(=N)N)C(=O)N[C@@H](CCCCN)C(=O)N[C@@H](CCC(=O)O)C(=O)N[C@@H](CCCNC(=N)N)C(=O)N[C@@H](CCC(N)=O)C(=O)N[C@@H](CCC(N)=O)C(=O)N[C@@H](C)C(=O)N[C@@H](CCC(=O)O)C(=O)N[C@@H](CCCCN)C(=O)N[C@@H](CC(N)=O)C(=O)N[C@@H](CCCCN)C(=O)N[C@@H](CCCNC(=N)N)C(=O)N[C@H](C(=O)N[C@@H](CC(C)C)C(=O)N[C@@H](CCC(=O)O)C(=O)N[C@@H](CCCNC(=N)N)C(=O)N[C@H](C(N)=O)C(C)C)[C@@H](C)CC)C(=O)O [SEQ ID NO: 226] (H-IVLSLD[dV]PIGLK([γGlu-Palmitoyl])QKLLKQQRQRKERQQAEKNKRILERV-NH2; N-terminus assumed) | 0.04 nM | 84% | –
2 | CC[C@H](C)[C@H](NC(C)=O)C(=O)N[C@H](C(=O)N[C@@H](CC(C)C)C(=O)N[C@@H](CO)C(=O)N[C@@H](CC(C)C)C(=O)N[C@@H](CC(=O)O)C(=O)N[C@@H](C(=O)N1CCC[C@H]1C(=O)N[C@H](C(=O)NCC(=O)N[C@@H](CC(C)C)C(=O)N[C@@H](CCCCNC(=O)COCCOCCNC(=O)COCCOCCNC(=O)CC[C@H](NC(=O)CCCCCCCCCCCCCCCCC(=O)O)C(=O)O)C(=O)N[C@@H](CCC(N)=O)C(=O)N[C@H](C(=O)N[C@@H](CC(C)C)C(=O)N[C@@H](CC(C)C)C(=O)N[C@@H](CCC(=O)O)C(=O)N[C@@H](CCC(N)=O)C(=O)N[C@@H](CCC(=O)O)C(=O)N[C@@H](CCCNC(=N)N)C(=O)N[C@@H](CCC(N)=O)C(=O)N[C@@H](CCCCN)C(=O)NC(C)(C)C(=O)N[C@@H](CCC(N)=O)C(=O)N[C@@H](CCCNC(=N)N)C(=O)N[C@@H](CCC(=O)O)C(=O)N[C@@H](CCC(N)=O)C(=O)N[C@@H](C)C(=O)N[C@@H](CCC(=O)O)C(=O)N[C@@H](CCCCN)C(=O)N[C@@H](CC(N)=O)C(=O)N[C@@H](CCCCN)C(=O)N[C@@H](CCC(N)=O)C(=O)N[C@H](C(=O)N[C@@H](CC(C)C)C(=O)N[C@@H](CCC(=O)O)C(=O)N[C@@H](CCC(N)=O)C(=O)N[C@H](C(N)=O)C(C)C)[C@@H](C)CC)[C@@H](C)CC)[C@@H](C)CC)C(C)C)C(C)C [compound 164] (Ac-IVLSLD[dV]PIGLK([AEEA-AEEA-γGlu-C18 diacid])QILLEQERQK[Aib]QREQAEKNKQILEQV-NH2) | 12.6 nM | – | 25.8%
